Experimental data taken from ChEMBL document CHEMBL1649305, “Novel protease inhibitors (PIs) containing macrocyclic components and 3(R),3a(S),6a(R)-bis-tetrahydrofuranylurethane that are potent against multi-PI-resistant HIV-1 variants in vitro” (Antimicrob Agents Chemother, 2010).
Active and inactive are the calls of the source. The calls are words filed in the database; no cut-off is given here.

Tests used:
[1] = system: Human immunodeficiency virus 1; assay: Antiviral activity against HIV1 expressing protease L10F/D30N/K45I/A71V/T74S mutant infected in human MT4 cells selected at 5 uM of nelfinavir by MTT assay; type: functional, organism-based; conditions: Human immunodeficiency virus 1, MT4
[2] = system: Human immunodeficiency virus 1; assay: Antiviral activity against HIV1 expressing protease L10I/L24I/M46I/V82I/I84V mutant infected in human MT4 cells selected after 50 passages of GRL-216 by MTT assay; type: functional, organism-based; conditions: Human immunodeficiency virus 1, MT4
[3] = system: Human immunodeficiency virus 1; assay: Antiviral activity against HIV1 expressing protease L10F/M46I/T91S mutant infected in human MT4 cells selected at 1 uM of GRL-246 by MTT assay; type: functional, organism-based; conditions: Human immunodeficiency virus 1, MT4
[4] = system: Human immunodeficiency virus 1; assay: Antiviral activity against HIV1 expressing protease L10F/M46M,I/Q61Q mutant infected in human MT4 cells selected at 1 uM of GRL-396 by MTT assay; type: functional, organism-based; conditions: Human immunodeficiency virus 1, MT4
[5] = system: Human immunodeficiency virus 1; assay: Antiviral activity against HIV1 expressing protease L10F/M46I/I54V/V82A mutant infected in human MT4 cells selected at 5 uM of Lopinavir by p24 Gag protein production inhibition assay; conditions: Human immunodeficiency virus 1, MT4
[6] = system: Human immunodeficiency virus 1; assay: Antiviral activity against HIV1 expressing protease L10I/G48V/I54V/A71V/I84V/L90M mutant infected in human MT4 cells selected at 5 uM of saquinavir by p24 Gag protein production inhibition assay; conditions: Human immunodeficiency virus 1, MT4
[7] = system: Human immunodeficiency virus 1; assay: Antiviral activity against HIV1 expressing protease L10F/M46I/I50V/A71V/I84V/L90M mutant infected in human MT4 cells selected at 5 uM of amprenavir by p24 Gag protein production inhibition assay; conditions: Human immunodeficiency virus 1, MT4
[8] = system: Human immunodeficiency virus 1; assay: Antiviral activity against HIV1 expressing protease L23I/E34Q/K43I/M46I/I50L/G51A/L63P/A71V/V82A/T91A mutant infected in human MT4 cells selected at 5 uM of atazanavir by p24 Gag protein production inhibition assay; conditions: Human immunodeficiency virus 1, MT4
[9] = system: Human immunodeficiency virus 1; assay: Antiviral activity against HIV1 LAI infected in human MT2 cells by MTT assay; type: functional, organism-based; conditions: Human immunodeficiency virus 1, LAI
[10] = system: Human immunodeficiency virus 2; assay: Antiviral activity against HIV2 EHO infected in human MT2 cells by MTT assay; type: functional, organism-based; conditions: Human immunodeficiency virus 2, EHO
[11] = system: Human immunodeficiency virus 2; assay: Antiviral activity against HIV2 ROD infected in human MT2 cells by MTT assay; type: functional, organism-based; conditions: Human immunodeficiency virus 2, ISOLATE ROD
[12] = Cytotoxicity against human MT2 cells after 7 days by MTT assay; type: cell-based
[13] = system: Human immunodeficiency virus 1; assay: Antiviral activity against HIV1 expressing protease L10F/M46L/I50V/A71Vmutant infected in human MT4 cells selected at 1 uM of GRL-286 by MTT assay; type: functional, organism-based; conditions: Human immunodeficiency virus 1, MT4
[14] = system: Human immunodeficiency virus 1; assay: Antiviral activity against wild type HIV1 NL4-3 infected in human MT4 cells by p24 Gag protein production inhibition assay; conditions: Human immunodeficiency virus 1, NL4-3, MT4
[15] = system: Human immunodeficiency virus 1; assay: Antiviral activity against wild type HIV1 ERS104 containing protease L63P mutant infected in human PHA-PBMC cells by p24 Gag protein production inhibition assay; conditions: Human immunodeficiency virus 1, ERS104, PBMC
[16] = system: Human immunodeficiency virus 1; assay: Antiviral activity against multidrug-resistant HIV1 isolate MM containing L10I, K43T, M46L, I54V, L63P, A71V, V82A, L90M, and Q92K mutant infected in human PHA-PBMC cells by p24 Gag protein production inhibition assay; conditions: Human immunodeficiency virus 1, isolate MM
[17] = system: Human immunodeficiency virus 1; assay: Antiviral activity against multidrug-resistant HIV1 isolate TM containing L10I, K14R, R41K, M46L, I54V, L63P, A71V, V82A, L90M, and I93L mutant infected in human PHA-PBMC cells by p24 Gag protein production inhibition assay; conditions: Human immunodeficiency virus 1, isolate TM
[18] = system: Human immunodeficiency virus 1; assay: Antiviral activity against multidrug-resistant HIV1 isolate C containing protease L10I, I15V, K20R, L24I, M36I, M46L, I54V, I62V, L63P, K70Q, V82A, and L89M mutant infected in human PHA-PBMC cells by p24 Gag protein production inhibition assay; conditions: Human immunodeficiency virus 1, isolate C
[19] = system: Human immunodeficiency virus 1; assay: Antiviral activity against multidrug-resistant HIV1 isolate JSL containing L10I, L24I, I33F, E35D, M36I, N37S, M46L, I54V, R57K, I62V, L63P, A71V, G73S, and V82A mutant infected in human PHA-PBMC cells by p24 Gag protein production inhibition assay; conditions: Human immunodeficiency virus 1, isolate JSL
[20] = system: Human immunodeficiency virus 1; assay: Antiviral activity against multidrug-resistant HIV1 isolate B containing protease L10I, K14R, L33I, M36I,M46I, F53I, K55R, I62V, L63P, A71V, G73S, V82A, L90M, and I93L mutant infected in human PHA-PBMC cells by p24 Gag protein production inhibition assay; conditions: Human immunodeficiency virus 1, isolate B
[21] = Selectivity ratio of CC50 for human MT2 cells to EC50 for HIV1 LAI infected human MT2 cells; type: ADME, cell-based; conditions: MT2 cells (CC50) and HIV1 LAI infected MT2 cells (EC50)
[22] = system: Human immunodeficiency virus 1; assay: Antiviral activity against multidrug-resistant HIV1 isolate G containing L10I, V11I, T12E, I15V, L19I,R41K, M46L, L63P, A71T, V82A, and L90M mutant infected in human PHA-PBMC cells by p24 Gag protein production inhibition assay; conditions: Human immunodeficiency virus 1, isolate G
[23] = system: Human immunodeficiency virus 1; assay: Antiviral activity against HIV1 NL4-3 infected in human MT4 cells at 1 uM after 20 passages by MTT assay; type: functional, organism-based
[24] = system: Human immunodeficiency virus 1; assay: Antiviral activity against HIV1 NL4-3 infected in human MT4 cells at 1 uM after 33 passages by MTT assay; type: functional, organism-based
[25] = system: Human immunodeficiency virus 1; assay: Antiviral activity against HIV1 NL4-3 infected in human MT4 cells at 1 uM after 37 passages by MTT assay; type: functional, organism-based
[26] = system: Human immunodeficiency virus 1; assay: Antiviral activity against HIV1 NL4-3 infected in human MT4 cells after 50 passages by MTT assay; type: functional, organism-based
[27] = system: Human immunodeficiency virus type 1 protease (Human immunodeficiency virus 1), Q72874 [L24I,V82I,I84V]; assay: Inhibition of protease L24I/V82I/I84V[…] dimerization in HIV1 infected in COS7 cells at 0.1 uM by FRET based assay; type: cell-based; conditions: COS-7
MT2 [28] = assay: Ratio of EC50 for HIV2 EHO to EC50 for HIV1 LAI infected in human MT2 cells; type: functional
MT2 [29] = assay: Ratio of EC50 for HIV2 ROD to EC50 for HIV1 LAI infected in human MT2 cells; type: functional

| SMILES | EC50 [1] [nM] | EC50 [2] [nM] | EC50 [3] [nM] | EC50 [4] [nM] | EC50 [5] [nM] | EC50 [6] [nM] | EC50 [7] [nM] | EC50 [8] [nM] | EC50 [9] [nM] | EC50 [11] [nM] | CC50 at 168 h [12] [nM] | EC50 [13] [nM] | EC50 [14] [nM] | EC50 [15] [nM] | EC50 [16] [nM] | EC50 [17] [nM] | EC50 [18] [nM] | EC50 [19] [nM] | EC50 [20] [nM] | EC50 [22] [nM] | also measured |
| --- | --- | --- | --- | --- | --- | --- | --- | --- | --- | --- | --- | --- | --- | --- | --- | --- | --- | --- | --- | --- | --- |
| Cc1c(O)cccc1C(=O)N[C@@H](CSc1ccccc1)[C@H](O)CN1C[C@H]2CCCC[C@H]2C[C@H]1C(=O)NC(C)(C)C | > 1000 | 130 | 290 | 220 | 320 | 510 | 300 | > 1000 |  |  |  |  |  |  |  |  |  |  |  |  |  |
| Cc1cccc(C)c1OCC(=O)N[C@@H](Cc1ccccc1)[C@@H](O)C[C@H](Cc1ccccc1)NC(=O)[C@H](C(C)C)N1CCCNC1=O [LOPINAVIR] | 37 | 190 | 330 | 280 | > 1000 | 120 | > 1000 | > 1000 | 39 | 28 | > 100000 | > 1000 | 46 | 34 | > 1000 | > 1000 | > 1000 | > 1000 | > 1000 |  | EC50 [10]: 35 nM |
| CCC[C@@]1(CCc2ccccc2)CC(O)=C([C@H](CC)c2cccc(NS(=O)(=O)c3ccc(C(F)(F)F)cn3)c2)C(=O)O1 | 39 | 29 | 95 | 42 | 310 | 22 | 220 | 410 | 170 | 330 | 54100 | 37 | 320 | 120 | 350 | 380 | 380 | 230 | 180 | 240 | EC50 [10]: 300 nM; selectivity ratio [21]: 320 |
| COc1ccc2c(c1)OCCCCCCCCN(C[C@@H](O)[C@H](Cc1ccccc1)NC(=O)O[C@H]1CO[C@H]3OCC[C@H]31)S2(=O)=O |  | 260 | 420 | 370 |  |  |  |  | 22 |  | 33300 | > 1000 |  |  |  |  |  |  |  |  | Activity [23]: inactive; Activity [24]: inactive; Activity [25]: inactive; Activity [26]: inactive |
| CC(C)CN(C[C@@H](O)[C@H](Cc1ccccc1)NC(=O)O[C@H]1CO[C@H]2OCC[C@H]21)S(=O)(=O)c1ccc(N)cc1 |  |  | 29 | 16 | 25 |  | 290 |  |  | 10 |  |  |  |  |  |  |  |  |  |  |  |
| CC(C)(C)NC(=O)[C@@H]1C[C@@H]2CCCC[C@@H]2CN1C[C@@H](O)[C@H](Cc1ccccc1)NC(=O)[C@H](CC(N)=O)NC(=O)c1ccc2ccccc2n1 | 3 |  |  |  | 28 | > 1000 | 26 | 31 |  |  |  |  | 5 | 8 | 190 | 260 | 32 | 300 | 270 | 30 |  |
| COc1ccc2c(c1)OC/C=C/CCCCN(C[C@@H](O)[C@H](Cc1ccccc1)NC(=O)O[C@H]1CO[C@H]3OCC[C@H]31)S2(=O)=O |  | 240 | 370 | 520 |  |  |  |  | 14 |  | 44900 | > 1000 |  |  |  |  |  |  |  |  | selectivity ratio [21]: 3200; Activity [23]: inactive; Activity [24]: inactive; Activity [25]: inactive; Activity [26]: inactive; inhibition [27]: Active |
| CC(C)CN(C[C@@H](O)[C@H](Cc1ccccc1)NC(=O)O[C@H]1CCOC1)S(=O)(=O)c1ccc(N)cc1 | 28 | 260 | 340 | 350 | 260 | 180 | > 1000 | 280 | 24 | 420 | > 100000 | > 1000 | 34 | 30 | 210 | 320 | 370 | 620 | > 1000 | 430 | EC50 [10]: 120 nM; Ratio EC50 (MT2 [28]): 3.53; Ratio EC50 (MT2 [29]): 12.3; Activity [23]: inactive; Activity [24]: inactive; Activity [25]: inactive; Activity [26]: inactive |
| CC(C)(C)NC(=O)[C@@H]1CN(Cc2cccnc2)CCN1C[C@@H](O)C[C@@H](Cc1ccccc1)C(=O)N[C@H]1c2ccccc2C[C@H]1O |  |  |  |  |  |  |  |  |  |  |  |  |  | 43 | > 1000 | > 1000 | > 1000 | > 1000 | > 1000 | 340 |  |
| COC(=O)N[C@H](C(=O)N[C@@H](Cc1ccccc1)[C@@H](O)CN(Cc1ccc(-c2ccccn2)cc1)NC(=O)[C@@H](NC(=O)OC)C(C)(C)C)C(C)(C)C [ATAZANAVIR] | 27 | 14 | 32 | 24 | 36 | 210 | 6 | > 1000 |  |  |  |  | 4 | 2 | 180 | 65 | 65 | 430 | 200 | 33 |  |
